# Key:
# NKG2A+/NKG2C− NK cells = assay: NK cell activation markers in NKG2A+/NKG2C- NK cells incubated with peptide and K562 expressing HLA-E (inhibition); type: cell-based, human; conditions: for percentage of CCL3+ NK cells / percentage of CD107a+ NK cells / percentage of IFNG+ NK cells / percentage of TNF+ NK cells: NKG2A+/NKG2C- NK cells, K562/HLA-E
# Experimental: (§1) A human immortalized myelogenous leukemia cell line (K562), which expresses HLA-E was incubated with novel peptides (Table 1) derived from the human proteome or human cytomegalovirus proteome. […] Controls assessments were also performed using NKG2A−/NKG2C− cells (Tables 10-13). Inhibition was indicated by a decrease in percent cells positive for cell surface markers, while activation was indicated by an increase in percent cells positive for cell surface markers.
# NKG2A−/NKG2C+ NK cells = assay: NK cell activation markers in NKG2A-/NKG2C+ NK cells incubated with peptide and K562 expressing HLA-E (activation); type: cell-based, human; conditions: for percentage of CCL3+ NK cells / percentage of CD107+ NK cells / percentage of IFNG+ NK cells / percentage of TNF+ NK cells: NKG2A-/NKG2C+ NK cells, K562/HLA-E
# Experimental: as §1
# NKG2A−/NKG2C− NK cells = assay: NK cell activation markers in control NKG2A-/NKG2C- NK cells incubated with peptide and K562 expressing HLA-E; type: cell-based, human
# Experimental: as §1
# HLA-E = biological target: T1, HLA-E (Homo sapiens, UniProt P13747); assay: HLA-E surface stabilization assay with RMA-S/HLA-E cells; type: cell-based; conditions: 30 μM peptide, 16 hours; for HLA-E surface expression stability (GeoMFI): anti-HLA-E antibody
# T1 construct: expressed in transfected cells; host or cells: RMA-S/HLA-E cells (antigen processing-defective lymphoma cell line)
# Experimental: HLA-E surface expression was assessed by measuring geometric mean fluorescence intensity (GeoMFI) in RMA-S cells following immunofluorescence staining with an anti-HLA-E antibody (Table 14). Increased GeoMFI was indicative of increased HLA-E surface expression stability following novel peptide exposures (FIG. 3).
# [1] = K562 expressing HLA-E, CD107a, IFNG, TNF, CCL3
# T1 sequence (P13747 22-358): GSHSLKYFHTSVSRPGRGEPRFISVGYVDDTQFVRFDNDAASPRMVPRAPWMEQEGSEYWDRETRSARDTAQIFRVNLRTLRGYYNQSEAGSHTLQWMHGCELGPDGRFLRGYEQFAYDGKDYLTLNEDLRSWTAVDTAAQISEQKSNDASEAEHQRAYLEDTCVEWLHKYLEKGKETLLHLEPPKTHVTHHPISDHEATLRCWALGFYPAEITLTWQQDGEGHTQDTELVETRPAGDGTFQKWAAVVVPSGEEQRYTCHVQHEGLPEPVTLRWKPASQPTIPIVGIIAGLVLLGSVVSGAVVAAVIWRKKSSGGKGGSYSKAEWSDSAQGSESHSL
# T1 sequence (P61769 21-119 partner): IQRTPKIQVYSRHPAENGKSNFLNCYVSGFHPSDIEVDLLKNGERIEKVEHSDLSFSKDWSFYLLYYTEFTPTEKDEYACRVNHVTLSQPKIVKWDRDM
sequence,measurement,setting,value
"FLPNRSLLF [human8, peptide SLC52A3 354-362 derived from the human proteome]",effect on NKG2A+/NKG2C− NK cell inhibition (in words),NKG2A+/NKG2C− NK cells; [1],mild inhibitory effects
same,percentage of CCL3+ NK cells,NKG2A+/NKG2C− NK cells; Trial 1,39.5%
same,percentage of CD107a+ NK cells,NKG2A+/NKG2C− NK cells; Trial 1,19.1%
same,percentage of IFNG+ NK cells,NKG2A+/NKG2C− NK cells; Trial 1,5.56%
same,percentage of TNF+ NK cells,NKG2A+/NKG2C− NK cells; Trial 1,1.84%
same,percentage of CCL3+ NK cells,NKG2A+/NKG2C− NK cells; Trial 2,56%
same,percentage of CD107a+ NK cells,NKG2A+/NKG2C− NK cells; Trial 2,26.4%
same,percentage of IFNG+ NK cells,NKG2A+/NKG2C− NK cells; Trial 2,10.5%
same,percentage of TNF+ NK cells,NKG2A+/NKG2C− NK cells; Trial 2,4.8%
same,percentage of CCL3+ NK cells,NKG2A+/NKG2C− NK cells; Trial 3,38.2%
same,percentage of CD107a+ NK cells,NKG2A+/NKG2C− NK cells; Trial 3,27.5%
same,percentage of IFNG+ NK cells,NKG2A+/NKG2C− NK cells; Trial 3,14.7%
same,percentage of TNF+ NK cells,NKG2A+/NKG2C− NK cells; Trial 3,6.96%
same,percentage of CCL3+ NK cells,NKG2A+/NKG2C− NK cells; Trial 4,32.8%
same,percentage of CD107a+ NK cells,NKG2A+/NKG2C− NK cells; Trial 4,28.2%
same,percentage of IFNG+ NK cells,NKG2A+/NKG2C− NK cells; Trial 4,12.7%
same,percentage of TNF+ NK cells,NKG2A+/NKG2C− NK cells; Trial 4,7.59%
same,percentage of CCL3+ NK cells,NKG2A+/NKG2C− NK cells; Trial 5,33.3%
same,percentage of CD107a+ NK cells,NKG2A+/NKG2C− NK cells; Trial 5,17.7%
same,percentage of IFNG+ NK cells,NKG2A+/NKG2C− NK cells; Trial 5,7.1%
same,percentage of TNF+ NK cells,NKG2A+/NKG2C− NK cells; Trial 5,3.6%
same,percentage of CCL3+ NK cells,NKG2A+/NKG2C− NK cells; Trial 6,27.1%
same,percentage of CD107a+ NK cells,NKG2A+/NKG2C− NK cells; Trial 6,20%
same,percentage of IFNG+ NK cells,NKG2A+/NKG2C− NK cells; Trial 6,6.74%
same,percentage of TNF+ NK cells,NKG2A+/NKG2C− NK cells; Trial 6,4.07%
same,effect on NKG2A−/NKG2C+ NK cell activation (in words),NKG2A−/NKG2C+ NK cells; [1],strong activating effects
same,percentage of CCL3+ NK cells,NKG2A−/NKG2C+ NK cells; Trial 1,75.5%
same,percentage of CD107+ NK cells,NKG2A−/NKG2C+ NK cells; Trial 1,73.7%
same,percentage of IFNG+ NK cells,NKG2A−/NKG2C+ NK cells; Trial 1,58.6%
same,percentage of TNF+ NK cells,NKG2A−/NKG2C+ NK cells; Trial 1,45.1%
same,percentage of CCL3+ NK cells,NKG2A−/NKG2C+ NK cells; Trial 2,89%
same,percentage of CD107+ NK cells,NKG2A−/NKG2C+ NK cells; Trial 2,82.1%
same,percentage of IFNG+ NK cells,NKG2A−/NKG2C+ NK cells; Trial 2,74.8%
same,percentage of TNF+ NK cells,NKG2A−/NKG2C+ NK cells; Trial 2,64%
same,percentage of CCL3+ NK cells,NKG2A−/NKG2C+ NK cells; Trial 3,84.1%
same,percentage of CD107+ NK cells,NKG2A−/NKG2C+ NK cells; Trial 3,84.3%
same,percentage of IFNG+ NK cells,NKG2A−/NKG2C+ NK cells; Trial 3,74.5%
same,percentage of TNF+ NK cells,NKG2A−/NKG2C+ NK cells; Trial 3,63.7%
same,percentage of CCL3+ NK cells,NKG2A−/NKG2C+ NK cells; Trial 4,65.3%
same,percentage of CD107+ NK cells,NKG2A−/NKG2C+ NK cells; Trial 4,64.8%
same,percentage of IFNG+ NK cells,NKG2A−/NKG2C+ NK cells; Trial 4,54%
same,percentage of TNF+ NK cells,NKG2A−/NKG2C+ NK cells; Trial 4,43.7%
same,percentage of CCL3+ NK cells,NKG2A−/NKG2C+ NK cells; Trial 5,74.6%
same,percentage of CD107+ NK cells,NKG2A−/NKG2C+ NK cells; Trial 5,70.7%
same,percentage of IFNG+ NK cells,NKG2A−/NKG2C+ NK cells; Trial 5,62.3%
same,percentage of TNF+ NK cells,NKG2A−/NKG2C+ NK cells; Trial 5,57.1%
same,percentage of CCL3+ NK cells,NKG2A−/NKG2C+ NK cells; Trial 6,57%
same,percentage of CD107+ NK cells,NKG2A−/NKG2C+ NK cells; Trial 6,53.1%
same,percentage of IFNG+ NK cells,NKG2A−/NKG2C+ NK cells; Trial 6,43.8%
same,percentage of TNF+ NK cells,NKG2A−/NKG2C+ NK cells; Trial 6,31.7%
same,percentage CCL3+ NK cells,NKG2A−/NKG2C− NK cells; Trial 1,33.5%
same,percentage CD107+ NK cells,NKG2A−/NKG2C− NK cells; Trial 1,27.7%
same,percentage TNF+ NK cells,NKG2A−/NKG2C− NK cells; Trial 1,4.82%
same,percentage of IFNG+ NK cells,NKG2A−/NKG2C− NK cells; Trial 1,14.7%
same,percentage CCL3+ NK cells,NKG2A−/NKG2C− NK cells; Trial 2,60.3%
same,percentage CD107+ NK cells,NKG2A−/NKG2C− NK cells; Trial 2,36.2%
same,percentage TNF+ NK cells,NKG2A−/NKG2C− NK cells; Trial 2,10.5%
same,percentage of IFNG+ NK cells,NKG2A−/NKG2C− NK cells; Trial 2,28.8%
same,percentage CCL3+ NK cells,NKG2A−/NKG2C− NK cells; Trial 3,52.4%
same,percentage CD107+ NK cells,NKG2A−/NKG2C− NK cells; Trial 3,47.3%
same,percentage TNF+ NK cells,NKG2A−/NKG2C− NK cells; Trial 3,16.5%
same,percentage of IFNG+ NK cells,NKG2A−/NKG2C− NK cells; Trial 3,38%
same,percentage CCL3+ NK cells,NKG2A−/NKG2C− NK cells; Trial 4,32%
same,percentage CD107+ NK cells,NKG2A−/NKG2C− NK cells; Trial 4,28.6%
same,percentage TNF+ NK cells,NKG2A−/NKG2C− NK cells; Trial 4,9.61%
same,percentage of IFNG+ NK cells,NKG2A−/NKG2C− NK cells; Trial 4,18.6%
same,percentage CCL3+ NK cells,NKG2A−/NKG2C− NK cells; Trial 5,29.2%
same,percentage CD107+ NK cells,NKG2A−/NKG2C− NK cells; Trial 5,20.2%
same,percentage TNF+ NK cells,NKG2A−/NKG2C− NK cells; Trial 5,6.07%
same,percentage of IFNG+ NK cells,NKG2A−/NKG2C− NK cells; Trial 5,14.2%
same,percentage CCL3+ NK cells,NKG2A−/NKG2C− NK cells; Trial 6,24.8%
same,percentage CD107+ NK cells,NKG2A−/NKG2C− NK cells; Trial 6,19.3%
same,percentage TNF+ NK cells,NKG2A−/NKG2C− NK cells; Trial 6,3.78%
same,percentage of IFNG+ NK cells,NKG2A−/NKG2C− NK cells; Trial 6,10.9%
same,HLA-E surface expression stability (GeoMFI),HLA-E; Trial 1,1066 GeoMFI
same,HLA-E surface expression stability (GeoMFI),HLA-E; Trial 2,813 GeoMFI
same,HLA-E surface expression stability (GeoMFI),HLA-E; Trial 3,1049 GeoMFI
same,HLA-E surface expression stability (GeoMFI),HLA-E; Trial 4,1654 GeoMFI
same,"HLA-E surface expression stabilization strength, approximate GeoMFI",HLA-E; approximate value,approximately 1×10^3 GeoMFI

# From patent publication US20240092835A1, “NOVEL PEPTIDES CAPABLE OF ALTERING NK CELL ACTIVITY” (Massachusetts Institute of Technology, priority 2022, published 2024)
